Measurements reported in PMC3663906 (Journal of medicinal chemistry, 2013).

Experiments:
[1] = tested on: endocytosis of transferrin in T. brucei; settings: cited from earlier work
HepG2 cells = assay: HepG2 cell toxicity assay; type: cell-based; settings: Homo sapiens, HepG2, read-out: HepG2 IC50, MTT cytotoxicity, Tables 5 and 6
[2] = Mouse oral pharmacokinetic study; type: in vivo
T. brucei brucei CA427 = assay: Mouse model of HAT
T. brucei [3] = assay: Trypanosome cell cycle analysis
[4] = tested on: endocytosis of transferrin in T. brucei; assay: Receptor-mediated endocytosis of transferrin in the trypanosome
T. brucei [5] = settings: cited from earlier work

Structure (SMILES): CS(=O)(=O)CCNCc1ccc(-c2ccc3ncnc(Nc4ccc(OCc5cccc(F)c5)c(Cl)c4)c3c2)o1 [Compound 1, lapatinib]
- effect on endocytosis of transferrin in the trypanosome [1]: inhibited endocytosis of transferrin

Structure (SMILES): O=S(=O)(c1cccc(-c2ccc3ncnc(Nc4ccc(OCc5cccc(F)c5)c(Cl)c4)c3c2)c1)N1CCOCC1 [Compound 10k, N-(3-chloro-4-((3-fluorobenzyl)oxy)phenyl)-6-(3-(morpholinosulfonyl)phenyl)quinazolin-4-amine]
- IC50 (HepG2 cells): > 20 µM

Structure (SMILES): O=S(=O)(c1ccc(-c2ccc3ncnc(Nc4ccc(OCc5cccc(F)c5)c(Cl)c4)c3c2)cc1)N1CCCCC1 [Compound 10l, N-(3-chloro-4-((3-fluorobenzyl)oxy)phenyl)-6-(4-(piperidin-1-ylsulfonyl)phenyl)quinazolin-4-amine]
- IC50 (HepG2 cells): > 20 µM

Structure (SMILES): O=S(=O)(c1cccc(-c2ccc3ncnc(Nc4ccc(OCc5cccc(F)c5)c(Cl)c4)c3c2)c1)N1CCCCC1 [Compound 10m, N-(3-chloro-4-((3-fluorobenzyl)oxy)phenyl)-6-(3-(piperidin-1-ylsulfonyl)phenyl)quinazolin-4-amine]
- IC50 (HepG2 cells): > 20 µM

Structure (SMILES): Fc1cccc(COc2ccc(Nc3ncnc4ccc(-c5cccc(N6CCOCC6)c5)cc34)cc2Cl)c1 [Compound 23a, N-(3-chloro-4-((3-fluorobenzyl)oxy)phenyl)-6-(3-morpholinophenyl)quinazolin-4-amine]
- oral bioavailability [2]: orally bioavailable
- survival on day 8 (all untreated mice had died) (T. brucei brucei CA427; 10 mg/kg twice per day i.p.): all alive
- survival (T. brucei brucei CA427; 10 mg/kg twice per day oral): died in the same time frame as control mice
- toxicity in multi-day regimen (T. brucei brucei CA427; mouse, 40 mg/kg dose once per day): drug-related toxicity was observed
- effect on the cell cycle (T. brucei [3]): blocks duplication of the kinetoplast and arrests cytokinesis, without inhibiting division of the trypanosome nucleus
- fraction of cells containing two nuclei and one kinetoplast (1K2N) (T. brucei [3]; DAPI microscopy): selectively increased
- number of cells containing one nucleus (1K1N, 1Ke1N) (T. brucei [3]; DAPI microscopy): reduced
- effect on receptor-mediated endocytosis of transferrin [4]: no effect

Structure (SMILES): C=CC(=O)Nc1cc2c(Nc3ccc(F)c(Cl)c3)ncnc2cc1OCCCN1CCOCC1 [canertinib]
- EC50 for killing T. brucei (T. brucei [5]): low micromolar range
